In test [1] the test system is PAE cells expressing VEGFR2. Kind of test: Chemotaxis assay (modified Boyden chamber), PAE/VEGFR-2 toward VEGF-A. The test is classed as cell-based, porcine. The note with it: Sus scrofa, PAE; 10 μM compound; VEGF-A as chemo-attractant; absence of serum; read-out: Chemotaxis: VEGFR-2 inhibition of cell migration (%) at 10 μM compound concentration. As for the experimental part: (§1) Additionally, the effect of the compounds was tested in this capacity of influencing chemotaxis. The test compounds were tested in porcine aorta endothelial (PAE) cells expressing VEGFR2 and VEGFR3 (PAE/VEGFR-2 and PAE/VEGFR-3). The method used is a modified Boyden chamber assay. The migration of the PAE cells expressing VEGFR2 and VEGFR3 receptors toward VEGF-A and VEGF-C respectively used as chemo-attractant was studied through micropore polycarbonate filter and was scored in the absence of serum. The assay was performed in the presence of compounds at 10 μM.
(§2) In Table 1, data from both the cell shape assay and the chemotaxis assay are shown. Thus, under “Cell Shape: PAE/VEGFR-2 with VEGF antagonist conc. (μM)” and “Cell Shape: PAE/VEGFR-3 with VEGF antagonist conc. (μM)” the concentration of the indicated inventive compound that gave restitution of cell morphology in the cell shape assay is shown. Data under “Chemotaxis: VEGFR-2% inhibition of cell migration” and “Chemotaxis: VEGFR-3% inhibition of cell migration” show the percentage inhibition of PAE cells expressing VEGFR-2 or 3 in the presence of 10 μM of the indicated inventive compound.

The test system of test [2] is PAE cells expressing VEGFR3. The experiment in a line: Chemotaxis assay (modified Boyden chamber), PAE/VEGFR-3 toward VEGF-C. The test is classed as cell-based, porcine. The note with it: Sus scrofa, 10 μM compound, VEGF-C as chemo-attractant, absence of serum, read-out: Chemotaxis: VEGFR-3 inhibition of cell migration (%) at 10 μM compound concentration. The method, then: as §1, §2

Another test deals with PAE/VEGFR-2 cells. The experiment in a line: Cell shape assay, PAE/VEGFR-2 cells with VEGF-A. The class given is cell-based, porcine. As for the experimental part: One of the used assays comprised a culture of PAE/VEGFR-2 and PAE/VEGFR3 cells. Morphological changes of the cells were recorded microscopically after addition of VEGF-A and VEGF-C respectively, followed by the test compound at a final concentration up to 100 μM. Growth inhibitions of the PAE/VEGFR-2 cells were detected in the presence of the compound of Example 1 according to the invention at 10 μM or lower. Furthermore, the inventive compounds were tested in PAE/VEGFR-3 cells and morphological changes of the cells were recorded microscopically after addition of the VEGF-C, followed by the test compound at a final concentration up to 100 μM. Growth inhibitions of the PAE/VEGFR-3 cells were detected in the presence of several of Examples according to the invention. The compounds were tested at 10, 50 and 100 μM. The effect of the test compounds in Table 1 is expressed as concentration of compound that inhibits the cell morphology induced by VEGF A and VEGF C. No effect means that no morphological changes were seen up to 100 μM compound concentrations.
as §2

Test [3] deals with T241 wt mouse fibrosarcoma tumor cells. Kind of test: Tumor synograft model. The test is classed as in vivo, C57B1 mice. The note with it: oral administration 25 mg/kg/day for 10 days, subcutaneous T241 tumors in mice, compared with vehicle. The method, then: FIG. 1 is a plot of the tumor volume (mL) in mice having received subcutaneously implanted T241 wt mouse fibrosarcoma tumor cells, as a function of days of therapy by oral administration at 25 mg/kg/day of the compound of Example 1 of the invention. This is compared to administration of vehicle only.
Female 6-week-old C57B1 mice were used for tumor studies. […] T241 wt mouse fibrosarcoma tumor cells growing in logarithmic phase were harvested and resuspended in media, and a single cell solution in a volume of 100 μL was implanted subcutaneously at the right flank of each animal. 6 Mice were used in the treated groups and 6 mice were used in the control groups. Systemic treatment by oral administration injections with either 50 μl of vehicle or the inventive compound (the compound of Example 1) (25 mg/kg/day) was begun at day at day 0 (zero). The inventive compound was administrated for 10 days. Visible tumors were present day 5-10 after implantation. Primary tumors were measured with digital calipers on the days indicated. Tumor volumes were calculated according to the formula: Length×width^2×0.52 as reported. […] It takes a significant number of days for the treated animals to reach the same tumor volume as the vehicle treated animals.

Bounds are passed on as bounds.

With `CNC(=O)c1ccc2ncc(C(=O)OCn3ccnc3)c(Nc3ccc(OC)cc3)c2c1` [Example 1, (1H-imidazol-1-yl)methyl 4-(4-methoxyphenylamino)-6-(methylcarbamoyl)-quinoline-3-carboxylate], the inhibition at 10 µM in test [1] came to 52%; in test [2], 53%. Besides, the minimal effective concentration in the test with PAE/VEGFR-2 cells (Sus scrofa, VEGF-A induced cell morphology, tested at 10, 50 and 100 μM, No effect = no morphological changes up to 100 μM, read-out: Cell Shape: PAE/VEGFR-2 with VEGF antagonist conc. (μM) that gives inhibition) was determined as 10 µM. For the same compound, in the test on PAE/VEGFR-2 cells (after addition of VEGF-A, final concentration up to 100 μM), the “Concentration at which growth inhibitions of the PAE/VEGFR-2 cells were detected” value is no more than 10 µM. The “Tumor volume, effectiveness in the animal model (FIG. 1)” value in test [3] was “convincing results for its effectiveness”.

The record behind these values is patent US20120065199A1, “SUBSTITUTED QUINOLINES FOR USE AS VEGF INHIBITORS” (CLANOTECH AB, priority 2009, published 2012).
